Measurements reported in patent publication US8476414B2, “Substrates and internal standards for mass spectrometry detection” (PerkinElmer Health Sciences, Inc., priority 2006, dated 2013).

What was measured:
[1] = Non-enzymatic hydrolysis of substrate in blank sample not containing blood, processed as the dried blood spots; format: physicochemical; conditions: blank without blood, same assay solution and processing
Procedure: For each sample, a disk of 3 mm diameter is punched from the areas of dried blood on a filter paper into a micro-centrifuge tube or a well of a 96-well microtiter plate. The blood disk is then incubated directly with an assay solution containing a substrate directed to the Fabry disease. The assay solution is prepared by mixing a 10 mM solution of substrate (4-(Hexadecanoyl-DL-carnitineamido)phenyl-α-D-galactopyranoside), a 1 mM solution of the internal standard for the enzymatic product (4-(Hexadecanoyl-DL-carnitine[C16-d3]amido)phenol), a 1 M solution of Acetylgalactosamine, and a 0.4 M solution of sodium acetate pH 4.6 buffer in a 8:1:3:38 ratio. The assay mixture containing the blood disk is incubated for 15 to 24 hours at 37° Celsius with orbital shaking (150 rpm) in a thermostatic air shaker. […] For the mass spectrometry analysis, the electrospray source is operated in positive mode, and the ions are detected in the parent ion of 176 scan mode. The amount of enzymatic product is calculated from the ion abundance ratio of the product to the internal standard minus that of a blank.
The […] chain for this particular example was chosen to contain 10 carbons and thus decanoyl-carnitine was used in the synthesis of the substrate. […] The final sample solutions were analyzed on a Waters Quattro Micro ESI-triple quadrupole tandem mass spectrometer using a parent ion of 176 scan. […]

[2] = target: T1, acid α-galactosidase A (GLA) (Homo sapiens, UniProt P06280); experiment: Dried blood spot enzyme assay with Fabry substrate, tandem mass spectrometry detection of the enzymatic product; format: biochemical; conditions: with dried blood sample, 15 to 24 hours at 37° Celsius, sodium acetate pH 4.6
T1 construct: from tissue
T1 sequence (P06280 32-429): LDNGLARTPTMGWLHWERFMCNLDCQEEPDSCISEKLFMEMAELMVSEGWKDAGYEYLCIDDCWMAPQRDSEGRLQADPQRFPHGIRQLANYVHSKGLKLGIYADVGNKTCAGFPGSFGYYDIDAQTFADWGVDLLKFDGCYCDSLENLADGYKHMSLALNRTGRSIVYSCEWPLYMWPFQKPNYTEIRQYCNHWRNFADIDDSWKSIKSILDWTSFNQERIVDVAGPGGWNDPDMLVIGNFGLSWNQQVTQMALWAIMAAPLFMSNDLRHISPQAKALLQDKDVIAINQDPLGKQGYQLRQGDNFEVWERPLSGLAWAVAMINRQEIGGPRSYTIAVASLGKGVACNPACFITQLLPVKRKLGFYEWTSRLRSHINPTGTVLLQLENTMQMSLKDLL
Procedure: For each sample, a disk of 3 mm diameter is punched from the areas of dried blood on a filter paper into a micro-centrifuge tube or a well of a 96-well microtiter plate. The blood disk is then incubated directly with an assay solution containing a substrate directed to the Fabry disease. The assay solution is prepared by mixing a 10 mM solution of substrate (4-(Hexadecanoyl-DL-carnitineamido)phenyl-α-D-galactopyranoside), a 1 mM solution of the internal standard for the enzymatic product (4-(Hexadecanoyl-DL-carnitine[C16-d3]amido)phenol), a 1 M solution of Acetylgalactosamine, and a 0.4 M solution of sodium acetate pH 4.6 buffer in a 8:1:3:38 ratio. The assay mixture containing the blood disk is incubated for 15 to 24 hours at 37° Celsius with orbital shaking (150 rpm) in a thermostatic air shaker. After the incubation period, an aliquot of pure methanol (without the use of chloroform) is added to each tube or well to terminate the enzymatic reaction. Before going into the mass spectrometer, an aliquot of the incubated aliquot is diluted in pure methanol. For the mass spectrometry analysis, the electrospray source is operated in positive mode, and the ions are detected in the parent ion of 176 scan mode. The amount of enzymatic product is calculated from the ion abundance ratio of the product to the internal standard minus that of a blank.

acid α-glucosidase (GAA) = experiment: Dried blood spot enzyme assay with Pompe substrate, tandem mass spectrometry detection of the enzymatic product; format: biochemical, human; conditions: pH 3.98
Procedure: An enzymatic reaction using a substrate directed to Pompe disease and the mass spectrometry analysis thereafter is carried out using the method specified in Example 1 with the following exceptions that sodium citrate was used as buffer. The assay solution for Example 2 was prepared by mixing a buffer solution (0.2 M sodium citrate/sodium phosphate, pH 3.98), a solution of 8 mM Acarbose, a solution of 10 mM substrate (4-Decanoyl-DL-carnitineamido)phenyl-α-D-glucopyranoside), and a solution of 1.0 mM internal standard (4-Decanoyl-DL-carnitine[C10-d3]amido)phenol) in a 93:1:4:2 ratio. The rest of the procedure is as indicated in Example 1.
In addition a blank filter paper sample not containing blood was processed following the same procedure as the dried blood spots. The same assay solution containing buffers, substrates, inhibitors and internal standards was used for all three samples. Therefore, all samples received the same concentration of reagents. The final sample solutions were analyzed on a Waters Quattro Micro ESI-triple quadrupole tandem mass spectrometer using a parent ion of 176 scan. The predominant peaks shown in the spectra are those corresponding to the intact substrate, internal standard and corresponding enzymatic product. […]

non-enzymatic substrate hydrolysis (product found in blank) [1] | enzymatic product of the substrate detected by MS/MS [2] | conversion of substrate to product (abundance of product relative to internal standard) (acid α-glucosidase (GAA); dried blood spot of healthy newborn) | Structure (SMILES) | conversion of substrate to product (abundance of product relative to internal standard) (acid α-glucosidase (GAA); dried blood spot of confirmed Pompe positive newborn)
minimal amount | significant amount | – | CCCCCCCCCCCCCCCC(=O)OC(CC(=O)Nc1ccc(O[C@H]2O[C@H](CO)[C@H](O)[C@H](O)[C@H]2O)cc1)C[N+](C)(C)C (mixture of isomers) [substrate directed to Fabry disease, 4-(Hexadecanoyl-DL-carnitineamido)phenyl-α-D-galactopyranoside] | –
negligible | – | highly noticeable | CCCCCCCCCC(=O)OC(CC(=O)Nc1ccc(O[C@H]2O[C@H](CO)[C@@H](O)[C@H](O)[C@H]2O)cc1)C[N+](C)(C)C (mixture of isomers) [substrate directed to Pompe disease, 4-(Decanoyl-DL-carnitineamido)phenyl-α-D-glucopyranoside] | no noticeable substrate to product conversion
